Values after ≈ are worked out from the molar mass of the structure shown. Read-outs that look alike come from different tables or passages of the source. One block for each molecule: values may come before it.
How the values were obtained:
[1] = test system: ECF FolT2 transporter; conditions: cited from earlier work
[2] = test system: ECF FolT transporter; test: Bacterial (whole-cell) folate uptake assay in L. casei; conditions: for Inhibition at 200 μM: folate import
Description: The OD600 was measured in a Nanodrop 2000c spectrophotometer (Thermo Fisher Scientific, Waltham, MA, USA) using half-micro cuvettes. The culture was diluted to OD600 = 0.06 in 25 mL and grown under the same conditions as before for 16 h. The new overnight culture was diluted to OD600 = 0.4 in 25 mL MRS medium and regrown in a 50 mL reaction tube for 2 h under the same conditions. The culture was subsequently centrifuged, washed with 50 mL PBS (50 mM, pH 7.4), centrifuged again, and resuspended in citrate buffer (20 mM, pH 6, 2% D-Glucose, 8 g/L NaCl, 0.2 g/L KCl) while adjusting the OD600 to 0.5. Then, 185 μL of this cell suspension was subsequently distributed on an opaque MultiScreen HTS Filter Plate-GV (Merck KGaA, Darmstadt, Germany). For each plate, two wells containing buffer for blank determination were included. A stock solution of compounds in DMSO (10 μL) was added to the wells and mixed (final DMSO conc. = 5%), followed by a preincubation at RT for 10 min. The solubility of the compounds in citrate buffer was verified in 96-well plates. Poorly soluble compounds were tested at the highest possible concentration. In addition, for each plate, four negative controls containing DMSO instead of inhibitor and a positive control were included. Tritium-labeled folic acid (Moravek Biochemicals, Brea, CA, USA) (5 μL, 2 μM, radioactivity was adjusted to 12.7 Ci/mmol using unlabeled folic acid) was added to the wells leading to a final concentration of 50 nM. The solutions were mixed (final volume 200 μL) as before, and the plate was incubated in a preheated incubator at 30 °C for 30 min. The plate was covered with sealing tape during the incubation steps to avoid evaporation. To stop the reaction, the liquid in the filter plates was removed from the cells by centrifugation (3 min at 1500× g). Subsequently, the cells were washed twice with PBS (10 mM, pH 7.2), followed by centrifugation steps (3 and 5 min at 1500× g). After removal of the underdrain, residual liquid on the bottom of the filters was removed using lint-free paper towels and the plate was dried at 50 °C in the incubator. After 10 min, 30 μL of liquid scintillating fluid was added into each well, the plate was covered with sealing tape and gently vortexed for 5 min. Relative radioactivity was determined for 1 min each well in a Wallac MicroBeta TriLux BetaCounter (Perkin Elmer, Waltham, MA, USA). […] Counts were averaged and after subtraction of the blank, the percentage of inhibition was determined by the following formula: Inh. %=100-x inhibitor/x negative control×100 The data were plotted including standard deviations. IC50 values were determined by plotting percentages of inhibition against the related concentrations and fitting the Origin standard function “Hill1” to the data. The KM was determined by plotting the relative radioactivity against the folic acid concentration and fitting the Origin standard function “Hyperbl” to the data.

[3] = test system: Staphylococcus aureus str. Newman; test: Antibacterial testing (MIC); type: cell-based; conditions: not auxotrophic
Description: (§1) Figure S12. Screening a broad library (4−22) against ECF FolT2 transporter in the L. casei bacterial assay. Compou nds colored i n blue s howed inhibiti on bi gger than 20% when tested at 500 µ M.
(§2) Compounds were prepared as DMSO stocks a nd minimum inhibitory concentrations (MIC) were determined as de-scribed elsewhere. Bacteria were handled according to standard procedures and w ere obtained from the Ger man Col-lection of M icroorganisms and Cell Cultures (DSMZ) or were part of our interna l strain collection. In brief, bacterial cultures were diluted in Tryptic Soy Broth (TSB; 1.7% pepto ne casein, 0.3% peptone soymeal, 0.25% glucose, 0.5% NaCl, 0.25% K2HPO4; pH 7.3) or Müller– Hinton br oth (0.2% beef infusion solids, 1.75% casein hydr olysate, 0.15% starch, pH 7.4) to achieve a final inoculum of approximately 10 4 to 105 cfu/mL. Compou nd s were tested in serial dilution (0.06– […]
(§3) Organisms FolT EcfT EcfA1 EcfA2 Figure S13:
(§4) Lactobacillus delbrueckii A0A061BSU4 Q1GBJ0 Q1GBI9 numbers of the […]
(§5) Lactobacillus casei transporter (FolT,

[4] = test system: Streptococcus pneumoniae DSM-11865 (PRSP); test: Antibacterial testing (MIC); type: cell-based; conditions: auxotrophic
Description: as §1, §2, §3, §4, §5

[5] = test system: Streptococcus pneumoniae DSM-20566; test: Antibacterial testing (MIC); type: cell-based; conditions: DSM20566; Streptococcus pneumoniae DSM-20566, auxotrophic
Description: as §1, §2, §3, §4, §5

[6] = Solubility of the compounds in citrate buffer (assay conditions); type: physicochemical
Description: The data were analyzed by using OriginPro 2018G (OriginLab Corporation, Northampton, MA, USA).

Compound: O=C(O)c1cc(OCc2cccc3ccccc23)ccc1O [Compound 1, reference compound]
IC50 ([1]; uptake into proteoliposomes, ECF FolT2 from L. delbrueckii): 282 ± 108 µM

Compound: O=C(O)CNCc1ccc(-c2ccc(Cl)cc2)o1 [Compound 2]
IC50 ([1]; proteoliposome uptake (in vitro assay, L. delbrueckii)): > 1200 µM
inhibition of folic acid uptake: inactive up to ([2]; bacterial uptake assay L. casei): > 1.2 mM

MIC [3]: 23 µg/mL (≈ 70.2 µM)
MIC [4]: 10 µg/mL (≈ 30.5 µM)
MIC [5]: 21 µg/mL (≈ 64.1 µM)
IC50 ([2]; bacterial uptake assay, L. casei, 50 nM radiolabeled folic acid): 204 ± 22 µM
Compound: O=C(O)c1cccc(NCc2ccc(-c3ccc(Cl)cc3)o2)c1 [Compound 3]
Inhibition at 200 μM ([2]; L. casei based uptake assay): 43% (IC50 = 204 ± 22 μM)

solubility under the conditions of the assay [6]: insoluble
solubility ([6]; citrate buffer with 5% DMSO, 96-well plates, pH 6, aqueous with cosolvent or surfactant or cyclodextrin, kinetic from dmso stock, citrate buffer, read-out: solubility limit (not soluble above)): ≤ 50 µM
Compound: O=C(O)c1ccccc1NCc1ccc(-c2ccc(Cl)cc2)o1 [Compound 23]
Inhibition at 50 µM ([2]; 50 µM (not soluble above 50 μM), L. casei based uptake assay): 11% at 50 µM

Compound: O=C(O)c1ccc(NCc2ccc(-c3ccc(Cl)cc3)o2)cc1 [Compound 24]
Inhibition at 500 μM ([2]; 500 μM, L. casei based uptake assay): n.i at 500 μM (n.i. = no inhibition (if inhibition < 10%))
inhibition ([2]; up to 500 μM, L. casei uptake assay): no inhibition

Compound: O=C(O)c1cccc(NCc2ccc(-c3cccc(Cl)c3)o2)c1 [Compound 25]
Inhibition at 200 μM ([2]; L. casei based uptake assay): 41%

Compound: O=C(O)c1cccc(NCc2ccc(-c3ccccc3Cl)o2)c1 [Compound 26]
Inhibition at 200 μM ([2]; L. casei based uptake assay): 36%

Compound: O=C(O)c1cccc(NCc2cc(-c3ccc(Cl)cc3)co2)c1 [Compound 27]
Inhibition at 200 μM ([2]; L. casei based uptake assay): 8%

Compound: Nc1nc(=O)c2nc(CNc3ccc(C(=O)N[C@@H](CCC(=O)O)C(=O)O)cc3)cnc2[nH]1 [folic acid]
Km ([2]; read-out: KM of folate uptake, substrate-dependent folate uptake in L. casei, PBS (50 mM, pH 7.4, 2% Glucose)): 0.049 µM
Vmax of folate uptake ([2]; substrate-dependent folate uptake in L. casei, PBS (50 mM, pH 7.4, 2% Glucose)): 83 (±2) counts per minute (cpm)

Source: paper PMC8910649, “An Efficient Way to Screen Inhibitors of Energy-Coupling Factor (ECF) Transporters in a Bacterial Uptake Assay” (International Journal of Molecular Sciences, 2022)
